These results are taken from patent publication EP2951180B1, “2,6,7,8 SUBSTITUTED PURINES AS HDM2 INHIBITORS” (Merck Sharp & Dohme Corp., priority 2013, dated 2014).

Like-named read-outs stand apart in the source and are kept apart here.

This assay deals with T1, HDM2 (Homo sapiens, UniProt Q00987).
T1 construct: Thioredoxin (N); made in house; host or cells: E. coli strain BL21(DE3)Rosetta
Description: HDM2 FRET assay (inhibition of binding of FITC labeled p53-pocket peptide to HDM2). The note with it: for IC50: read-out: FRET IC50. The method in brief: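 Final: 0.5 nM His-HDM2, 3 nM FITC peptide, 0.25 nM Tb anti-His Ab; PBS, 0.01% BSA, 0.01% Tween-20; 0.1% DMSO.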

[1] abbreviates: 0.5 nM HDM2 (residues 17 to 125), 3nM peptide, two hour incubation at room temperature.

T1 sequence (Q00987 17-125): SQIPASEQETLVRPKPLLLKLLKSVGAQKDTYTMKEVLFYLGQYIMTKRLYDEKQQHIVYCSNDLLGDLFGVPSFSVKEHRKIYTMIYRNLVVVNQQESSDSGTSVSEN

For `C[C@@H](Nc1nc(C(=O)O)nc2nc(N3CCCCC3c3ccc(F)cc3)n(Cc3ccc(C(F)(F)F)cc3)c12)C1CCC1` (stereo partly drawn) [Example 9.117, 6-{[(1R)-1-cyclobutylethyl]amino}-8-[2-(4-fluorophenyl)piperidin-1-yl]-7-[4-(trifluoromethyl)benzyl]-7H-purine-2-carboxylic acid], the IC50 (Table 9) was 10.6 nM.

`CCS(=O)(=O)c1nc(N[C@H](C)C2CCC2)c2c(n1)nc(N1CCOC[C@H]1c1ccccc1)n2C[C@H]1CC[C@H](C)CC1` [Example 14.5, N-[(1R)-1-cyclobutylethyl]-2-(ethylsulfonyl)-7-[(trans-4-methylcyclohexyl)methyl]-8-[(3R)-3-phenylmorpholin-4-yl]-7H-purin-6-amine]: the IC50 under setting [1] is 20.1 nM.

Regarding `C[C@@H](Nc1nc(C(=O)O)nc2nc(N3CCCCC3Cc3ccccc3)n(Cc3ccc(C(F)(F)F)cc3)c12)C1CCC1` (stereo partly drawn) [Example 9.3, 8-(2-benzylpiperidin-1-yl)-6-{[(1R)-1-cyclobutylethyl]amino}-7-[4-(trifluoromethyl)benzyl]-7H-purine-2-carboxylic acid], the IC50 (Table 9) is 14.5 nM.

For the compound `COc1ccc(C)cc1-c1nc2nc(C(=O)O)nc(N[C@H](C)C3CC3(F)F)c2n1Cc1ccc(C(F)(F)F)cc1` (stereo partly drawn) [Example 7.19, 6-{[(1R)-1-(2,2-difluorocyclopropyl)ethyl]amino}-8-(2-methoxy-5-methylphenyl)-7-[4-(trifluoromethyl)benzyl]-7H-purine-2-carboxylic acid], the IC50 (Table 7) came to 772 nM.

On to `C[C@@H](Nc1nc(-c2noc(=O)[nH]2)nc2nc(C(C)(O)c3ccccc3)n(C[C@H]3CC[C@H](C)CC3)c12)C1CCC1` (single isomer, unassigned) [Example 22.23], for which, where the note is “Table 22”, the IC50 turned out to be 6.38 nM.

Take `C[C@@H](Nc1nc(-c2noc(=O)[nH]2)nc2nc(N(C)CC3CCCN(C)C3)n(Cc3ccc(C(F)(F)F)cc3)c12)C1CCC1` (some centres unmarked) [Example 9.99]: where the note is “Table 9”, the IC50 is 45 nM.

Consider `C[C@@H](Nc1nc(-c2noc(=O)[nH]2)nc2nc(N3CCCC3C[S+](C)[O-])n(C[C@H]3CC[C@H](C)CC3)c12)C1CCC1` (single isomer, unassigned) [Example 11.154], for which the IC50 (Table 11) stood at 70.7 nM.

In the case of `Cc1cccc(-c2nc3nc(C(=O)O)nc(NC(C)C4CCCC4)c3n2Cc2ccc(C(F)(F)F)cc2)c1` (centres unmarked) [Example 6.32, 6-[(1-cyclopentylethyl)amino]-8-(3-methylphenyl)-7-[4-(trifluoromethyl)benzyl]-7H-purine-2-carboxylic acid], under “Table 6”, the IC50 turned out to be 373 nM.

With `C[C@@H](Nc1nc(-c2noc(=O)[nH]2)nc2nc(N(C)Cc3ccncn3)n(C[C@H]3CC[C@H](C)CC3)c12)C1CCC1` [Example 11.70, 3-(6-{[(1R)-1-cyclobutylethyl]amino}-7-[(trans-4-methylcyclohexyl)methyl]-8-[methyl(pyrimidin-4-ylmethyl)amino]-7H-purin-2-yl)-1,2,4-oxadiazol-5(2H)-one], the IC50 (Table 11) stood at 22.8 nM.

Consider `C[C@@H](Nc1nc(-c2noc(=O)[nH]2)nc2nc(N3CCOCC3c3ccc(Cl)cc3)n(C[C@H]3CC[C@H](C)CC3)c12)C1CCC1` (stereo partly drawn) [Example 11.119, 3-{8-[3-(4-chlorophenyl)morpholin-4-yl]-6-{[(1R)-1-cyclobutylethyl]amino}-7-[(trans-4-methylcyclohexyl)methyl]-7H-purin-2-yl}-1,2,4-oxadiazol-5(4H)-one], for which the IC50 (Table 11) is 24.8 nM.

Take `C[C@@H](Nc1nc(C(=O)O)nc2nc(C(=O)N[C@@H](CO)c3ccccc3)n(Cc3ccc(C(F)(F)F)cc3)c12)C1CCC1` [Example 10.15, 6-(((R)-1-cyclobutylethyl)amino)-8-(((R)-2-hydroxy-1-phenylethyl)carbamoyl)-7-(4-(trifluoromethyl)benzyl)-7H-purine-2-carboxylic acid]: the concentration for half-maximal inhibition (IC50) (Table 10) is 202 nM.

`CC(c1ccccc1)c1nc2nc(-c3noc(=O)[nH]3)nc(N[C@H](C)C3CCC3)c2n1C[C@H]1CC[C@H](C)CC1` (single isomer, unassigned) [Example 21.14]: under “Table 21”, the IC50 turned out to be 19.8 nM.

`C[C@H]1CC[C@H](Cn2c(N3CCOCC3)nc3nc(-c4n[nH]c(=O)o4)nc(-c4cccc(Cl)c4)c32)CC1` [Example 16.33, 5-{6-(3-chlorophenyl)-7-[(trans-4-methylcyclohexyl)methyl]-8-morpholin-4-yl-7H-purin-2-yl}-1,3,4-oxadiazol-2(3H)-one]: the IC50 under setting [1] was found to be 163 nM.

In the case of `C[C@@H](Nc1nc(-c2noc(=O)[nH]2)nc2nc(C3=CCCCC3)n(C[C@H]3CC[C@H](C)CC3)c12)C1CCC1` [Example 21.37, 3-(6-{[(1R)-1-cyclobutylethyl]amino}-8-cyclohex-1-en-1-yl-7-[(trans-4-methylcyclohexyl)methyl]-7H-purin-2-yl)-1,2,4-oxadiazol-5(4H)-one], the IC50 (Table 21) was 3.79 nM.

For the compound `CC(C)CN1CCC(CN(C)c2nc3nc(-c4noc(=O)[nH]4)nc(N[C@H](C)C4CCC4)c3n2Cc2ccc(C(F)(F)F)cc2)C1` (stereo partly drawn) [Example 9.108, 3-(6-{[(1R)-1-cyclobutylethyl]amino}-8-(methyl{[1-(2-methylpropyl)pyrrolidin-3-yl]methyl}amino)-7-[4-(trifluoromethyl)benzyl]-7H-purin-2-yl)-1,2,4-oxadiazol-5(4H)-one], the IC50 (Table 9) was 144 nM.

Regarding `C[C@@H](Nc1nc(-c2noc(=O)[nH]2)nc2nc(N(C)C3CCCCC3)n(Cc3ccc(C(F)(F)F)cc3)c12)C1CCC1` [Example 9.87, 3-(6-{[(1R)-1-cyclobutylethyl]amino}-8-[cyclohexyl(methyl)amino]-7-[4-(trifluoromethyl)benzyl]-7H-purin-2-yl)-1,2,4-oxadiazol-5(4H)-one], the IC50 (Table 9) was 23.4 nM.

Turning to `C[C@@H](Nc1nc(-c2noc(=O)[nH]2)nc2nc(C(C)(O)C(F)(F)F)n(C[C@H]3CC[C@H](C)CC3)c12)C1CCC1` (single isomer, unassigned) [Example 22.12], the IC50 (Table 22) came to 26.7 nM.

Turning to `CC1CCCCC1(F)c1nc2nc(-c3noc(=O)[nH]3)nc(-c3cncc(Cl)c3)c2n1C[C@H]1CC[C@H](C)CC1` (relative stereo) [Example 23.65, 3-{6-(5-chloropyridin-3-yl)-8-(1-fluoro-2-methylcyclohexyl)-7-[(trans-4-methylcyclohexyl)methyl] -7H-purin-2-yl}-1,2,4-oxadiazol-5(4H)-one], the half-inhibitory concentration (IC50) (Table 23) was 6.63 nM.

As to `C[C@@H](Nc1nc(-c2noc(=O)[nH]2)nc2nc(N3CCCCC3CF)n(Cc3ccc(C(F)(F)F)cc3)c12)C1CCC1` (stereo partly drawn) [Example 9.90, 3-(6-{[(1R)-1-cyclobutylethyl]amino}-8-[2-(fluoromethyl)piperidin-1-yl]-7-[4-(trifluoromethyl)benzyl]-7H-purin-2-yl)-1,2,4-oxadiazol-5(4H)-one], the IC50 (Table 9) is 12.1 nM.

With `C[C@@H](Nc1nc(C(=O)O)nc2nc(N3CCCC[C@@H]3c3ccccc3)n(Cc3ccc(C(F)(F)F)cc3)c12)C1CCC1` [Example 9.62, 6-{[(1R)-1-cyclobutylethyl]amino}-8-[(2R)-2-phenylpiperidin-1-yl]-7-[4-(trifluoromethyl)benzyl]-7H-purine-2-carboxylic acid], the IC50 (Table 9) stood at 17.3 nM.

`COCC(c1ccccc1)c1nc2nc(-c3noc(=O)[nH]3)nc(N[C@H](C)C3CCC3)c2n1C[C@H]1CC[C@H](C)CC1` (single isomer, unassigned) [Example 21.42, 3-(6-{[(1R)-1-cyclobutylethyl]amino}-8-[(1S or R)-2-methoxy-1-phenylethyl]-7-[(trans-4-methylcyclohexyl)methyl]-7H-purin-2-yl)-1,2,4-oxadiazol-5(4H)-one]: the IC50 (Table 21) was 3.41 nM.

For `C[C@@H](Nc1nc(C(=O)O)nc2nc(N3CCOCC3)n(Cc3ccc(C(F)(F)F)cc3)c12)C1CCC1` [Example 9.118, 6-{[(1R)-1-cyclobutylethyl]amino}-8-morpholin-4-yl-7-[4-(trifluoromethyl)benzyl]-7H-purine-2-carboxylic acid], the IC50 (Table 9) stood at 51.8 nM.

With `CC(=O)c1nc(N[C@H](C)C2CCC2)c2c(n1)nc(N1CCOC[C@H]1c1ccccc1)n2C[C@H]1CC[C@H](C)CC1` [Example 12.21, 1-(6-{[(1R)-1-cyclobutylethyl]amino}-7-[(trans-4-methylcyclohexyl)methyl]-8-[(3R)-3-phenylmorpholin-4-yl]-7H-purin-2-yl)ethanone], the IC50 under setting [1] amounted to 53.3 nM.

In the case of `CC[C@@H]1COCCN1c1nc2nc(-c3noc(=O)[nH]3)nc(-c3cccc(Cl)c3)c2n1C[C@H]1CC[C@H](C)CC1` [Example 16.47, 3-{6-(3-chlorophenyl)-8-[(3R)-3-ethylmorpholin-4-yl]-7-[(trans-4-methylcyclohexyl)methyl]-7H-purin-2-yl}-1,2,4-oxadiazol-5(4H)-one], the IC50 under setting [1] was 11.1 nM.

Consider `CC(C)c1ccnc(-c2nc3nc(CNC(=O)C(F)(F)F)nc(N[C@H](C)C4CCC4)c3n2C[C@H]2CC[C@H](C)CC2)c1` [Example 12.10, N-[(6-{[(1R)-1-cyclobutylethyl]amino}-7-[(trans-4-methylcyclohexyl)methyl]-8-[4-(propan-2-yl)pyridin-2-yl]-7H-purin-2-yl)methyl]-2,2,2-trifluoroacetamide], for which the inhibition at 1 µM (read-out: % inh. at 1000 nM, at 1000 nM compound) is 30%.

For `C=CCN(c1nc(C(=O)O)nc2nc(N[C@@H](C)c3cccc(F)c3)n(Cc3ccc(C(F)(F)F)cc3)c12)[C@H](C)C1CCC1` [Example 10.28, 6-(Allyl((R)-1-cyclobutylethyl)amino)-8-(((S)-1-(3-fluorophenyl)ethyl)amino)-7-(4-(trifluoromethyl)benzyl)-7H-purine-2-carboxylic acid], the IC50 (Table 10) is 22.2 nM.
